{"source": "patent US20100247659A1", "about": "“PHENYLPHTHALIMIDE ANALOGS FOR TREATING DIABETIC MACULAR EDEMA” (Charlesson, LLC, priority 2007, published 2010)", "key": {"HUVEC [1]": {"test_system": "HUVEC", "assay": "MTT cell proliferation assay, HUVEC", "type": "cell-based", "conditions": "Homo sapiens, 72 h, treated 3 days, read-out: IC50, inhibition of proliferation of HUVEC", "source_text": "(§1) Cell culture: All cell culture media and supplements were purchased from Cellgro unless otherwise indicated. Human Umbilical Vein Endothelial Cells (HUVEC) were obtained from American Type Culture Collection and grown in the EBM-MV2 medium (Clonetics). Bovine Retinal Endothelial Cells (BREC) and pericytes were isolated according to a modified method as described previously (Wong, et al. Investig. Opthalmol. Vis. Sci. 1987, 28: 1767-1775). Twelve bovine eyes were obtained from a local slaughterhouse (Country Home Meats). The retinas were removed and washed four times in DMEM. Subsequently retinas were homogenized and centrifuged at 400×g for 10 min. The resultant pellet was resuspended in an isolation medium (DMEM with 100 IU/ml penicillin, 100 μg/ml streptomycin and 250 ng/ml amphotericin). Microvessels were trapped on an 85 μm nylon mesh (Locker Wire Weavers LTD) and transferred to a petri dish (Falcon) containing 10 ml of an enzyme cocktail which consisted of 600 μg/ml DNase I (Sigma), 165 μg/ml collagenase (Sigma) and 700 μg/ml Pronase E (EMD) and were incubated at 37° C. for 20 min. The resultant vessel fragments were trapped on a 53 μm nylon mesh (Locker Wire Weavers LTD), washed with the isolation medium and centrifuged at 400×g for 5 min. For selective culture of pericytes, the resultant pellet was resuspended in 10 ml of the pericyte growth medium and transferred into 75-cm^2 plastic tissue culture flasks (BD Biosciences). For selective culture of BRCECs, the resultant pellet was resuspended in 10 ml of the BRCEC growth medium and transferred into 75-cm^2 collagen-coated plastic tissue culture flasks (BD Biosciences). The BRCEC growth medium consisted of DMEM supplemented with 10% human serum, 1% glutamine, 1 mg/ml insulin, 550 μg/ml transferring, 670 ng/ml selenium, 100 IU/ml penicillin, 100 μg/ml streptomycin, 250 ng/ml amphotericin, 90 μg/ml heparin (Sigma) and 15 μg/ml endothelial cell growth supplement (Upstate). Cells were cultured at 37° C. and 5% CO2 with regular medium change every 3 days. Confluence cultures were passaged by detaching the cells with 0.25% trypsin and plated at a split 1:3. […] At passage 2, BRCECs and pericytes were stored in a liquid nitrogen tank for future use.\nMTT assay: Cells were seeded at a density of 5×10^4 cells per well in 400 μl of growth medium in triplicate in 24-well plates (Nalge Nunc) or gelatin-coated 24-well plates. Twenty-four hours after seeding, the growth medium was replaced by a medium containing 1% FBS, with or without different concentrations of thalidomide or phenylphthalimide analogs. After the cells were treated for 48-72 h, MTT was added to a final concentration of 0.5 mg of medium per ml and incubated for 4 h at 37° C. in 5% CO2. An equal volume of solubilizer buffer is then added, following the protocol recommended by the manufacturer (Roche Molecular Biochemicals), the cells will be incubated overnight at 37° C. in 5% CO2. The absorbance of the formazen product was measured at a wavelength of 570 nm, with 750 nm as the (subtracted) reference wavelength.\nPrimary endothelial cells (HUVEC and BRCEC) and pericytes were treated with various concentrations of the compounds for 3 days. Viable cells were quantified using MTT assay and IC50 of each compound was calculated (mean±SD, n=3, FIG. 1). The IC50 values represent the means and SE of 3 independent experiments."}, "[2]": {"test_system": "CAM blood vessel formation induced by VEGF/bFGF", "assay": "Chicken chorioallantoic membrane (CAM) assay", "type": "in vivo", "conditions": "200 ng VEGF-165/bFGF, 48 hr", "description": "Chicken chorioallantoic membrane (CAM) assay: The fertile Leghorn chicken eggs were incubated in a humidified environment at 37.5° C. for 10 days. […] Anti-angiogenic compounds were then added 8 hr after the VEGF/bFGF at saturation to the same microbial testing disk, and the embryos were incubated for an additional 40 h. CAMs were then removed, quickly fixed with 4% paraformaldehyde in PBS, placed onto Petri dishes, and digitized images taken at 7.5× using a Nikon dissecting microscope and Scion Imaging system. A 1×1-cm grid was then added to the digital CAM images and the average number of vessels within 5-7 grids counted as a measure of vascularity.\nCAM assay was used for in vivo anti-angiogenic studies. The fertile leghorn chicken eggs were allowed to incubate in a humidified environment at 37.5° C. for 10 days. […] Anti-angiogenic compounds were then added 8 hours after the VEGF/bFGF at saturation to the same microbial testing disk and embryos allowed to incubate for an additional 40 hours. After 48 hr, CAMs were removed, quickly fixed with 4% paraformaldehyde in PBS, placed onto Petri dishes, and digitized images taken at 7.5× using a Nikon dissecting microscope and Scion Imaging system. A 1×1-cm grid was then added to the digital CAM images and the average number of vessels within 5-7 grids counted as a measure of vascularity.\nFIG. 14 is a table comparing the effect of Compound 4 on blood vessel formation. […] Data represent mean±SD of 8-16 samples from 2-3 separate experiments."}, "HUVEC [3]": {"test_system": "HUVEC", "assay": "Endothelial cell migration (invasion) assay", "type": "cell-based", "conditions": "Homo sapiens, VEGF 4 ng/ml, invasion through Matrigel, read-out: IC50, inhibition of HUVEC migration", "protocol": "Cells were allowed to invade for 22±1 hours. Cells were labeled post invasion with Calcein AM (4 μg/ml) and measured by detecting the fluorescence of cells that invaded through the BD Matrigel™ Matrix with an Applied Biosystems CytoFluor® 4000 plate reader at 485 nm excitation and 530 nm emission.\nIn this assay system, human endothelial cells are allowed to invade and are then labeled with fluorescent dye Calcein AM before quantification on a fluorometer.\nIn FIG. 2B, cells were seeded at 5×10^4/insert in EBM-2 containing 0.1% BSA in multi-well inserts. The assembled assays were allowed to proceed for 6 hours. The results are expressed as percent inhibition of migration as compared to control (no inhibitor). Data represents the average of 3 experiments, each run in triplicate. The bars represent mean±SD."}, "STZ-diabetic rats [4]": {"test_system": "STZ-diabetic rats", "assay": "Retinal vascular leakage in STZ-diabetic rats, intravitreal injection", "type": "in vivo, rat", "conditions": "for reduction of retinal vascular leakage vs vehicle control: single intravitreal 1.0 μg/eye (5 μl 0.8 mM), 48 h; for reduction of retinal vascular permeability: two days", "protocol": "Induction of diabetes by streptozotocin (STZ): BN rats (8 weeks of age) were given a single intraperitoneal injection of fresh made streptozotocin (STZ) (Sigma, 50 mg/kg in 10 mM of citrate buffer, pH 4.5) following an overnight fasting. Control rats received an injection of citrate buffer alone. Blood glucose levels were checked at 24 hours following the last STZ injection and once a week thereafter, and only the animals with glucose levels higher than 350 mg/dl were considered diabetic. Rats with hyperglycemia for 2 weeks were used for these experiments.\n(§2) Intravitreal injection of compounds: Thalidomide and the phenylphthalimide analogs Compounds 1, 2 and Compound 4 were dissolved in vehicle (BN rat serum) and sterilized by filtration. OIR and STZ-diabetic BN rats received an intravitreal injection of 0.5-2.0 μg/eye of (5 μl/eye, 0.1-0.4 mg/ml in BN rat serum) of thalidomide, Compounds 1, 2 or Compound 4 into the right eye and the equal volume of the BN rat serum into the left eye.\nEvans blue dye (Sigma) was dissolved in 0.9% saline (30 mg/ml), sonicated for 5 min and filtered through a 0.45-μm filter (Millipore). The rats were then anesthetized, and Evans blue (30 mg/kg) was injected over 10 s through the femoral vein using a glass capillary under microscopic inspection. Evans blue non-covalently binds to plasma albumin in the blood stream. Immediately after Evans blue infusion, the rats turned visibly blue, confirming their uptake and distribution of the dye. The rats were kept on a warm pad for 2 h to ensure the complete circulation of the dye. Then the chest cavity was opened, and the rats were perfused via the left ventricle with 1% paraformaldehyde in citrate buffer (pH 4.2) which was pre-warmed to 37° C. to prevent vasoconstriction. The perfusion lasted 10 min under the physiological pressure of 120 mmHg, in order to clear the dye from the vessel. Immediately after perfusion, the eyes were enucleated and the retinas were carefully dissected under an operating microscope. Evans blue dye was extracted by incubating each sample in 150 μl of formamide for 18 h at 70° C. The extract was centrifuged (Beckman) at 70,000 rpm (Rotor type: TLA 100.3) for 20 min at 4° C. Absorbance was measured using 100 μl of the supernatant at 620 nm by using Spectrophotometer DU800 (Beckman). The concentration of Evans blue in the extract was calculated from a standard curve of Evans blue in formamide and normalized by the total protein concentration in each sample. Results were expressed in mg of Evans blue per mg of total protein content.\nDiabetes was induced by injection of STZ (50 mg/kg, i.v.) into adult BN rats after overnight fasting. Blood glucose levels were monitored at the second day after the injection and once a week thereafter. Rats with glucose levels above 350 mg/dl were considered as diabetic and used for the study. thalidomide, Compounds 1, 2 and 4 were separately injected into the vitreous space (5 μl, 0.8 mM in BN rat serum) of the right eye of STZ-diabetic rats 2 wks after the induction of diabetes. At 48 h after the injection, retinal vascular leakage was measured using the Evans blue-albumin leakage method.\nTo determine the dose-response relationship of the effect of Compound 4 and thalidomide, the STZ-diabetic rats received an intravitreal injection of Compound 4 and thalidomide with doses of 0.5, 0.75 and 1.0 μg/eye (5 μl/eye of 0.10, 0.15 and 0.20 mg/ml), respectively."}, "BRCEC": {"test_system": "BRCEC", "assay": "MTT cell proliferation assay, BRCEC", "type": "cell-based, bovine", "conditions": "Bos taurus, 72 h, treated 3 days, read-out: IC50, inhibition of proliferation of BRCEC", "source_text": "as §1\nMTT assay: Cells were seeded at a density of 5×10^4 cells per well in 400 μl of growth medium in triplicate in 24-well plates (Nalge Nunc) or gelatin-coated 24-well plates. […] The absorbance of the formazen product was measured at a wavelength of 570 nm, with 750 nm as the (subtracted) reference wavelength.\nPrimary endothelial cells (HUVEC and BRCEC) and pericytes were treated with various concentrations of the compounds for 3 days. Viable cells were quantified using MTT assay and IC50 of each compound was calculated (mean±SD, n=3, FIG. 1). […]"}, "OIR rats": {"test_system": "OIR rats", "assay": "Retinal vascular leakage in OIR rats, intravitreal injection", "type": "in vivo, rat", "conditions": "for retinal vascular leakage as % of contralateral vehicle-injected eyes: intravitreal 5 μl 0.8 mM at P14, measured P16; for reduction of retinal vascular leakage vs vehicle control: single intravitreal 1.0 μg/eye (5 μl 0.8 mM) at P14, measured P16", "quoted_text": "Induction of oxygen-induced retinopathy (OIR): Induction of OIR followed the procedure as described by Smith et al (Smith, et al. Invest. Opthalmol. Vis. Sci. 1994, 35: 101-111) with some modifications. Briefly, Newborn Brown Norway (BN) rats (Charles River Laboratories) at postnatal day 7 (P7) were exposed to hyperoxia (75% O2) for 5 days (P7-12) and then returned to normoxia (room air) to induce retinopathy.\nas §2\nMeasurement of vascular permeability: Vascular permeability was quantified by measuring leakage of FITC-albumin or Evans blue dye-albumin complex from the blood vessels into the retina as described (Xu, et al. Invest. Opthalmol. Vis. Sci. 2001, 42:789-794), with some modifications. Briefly, FITC-albumin was injected through the femoral vein and circulated for 2 h. The rats were then perfused via the left ventricle. The retinas were carefully dissected and homogenized. The concentrations of FITC-albumin were measured in a fluorometer and normalized by the total protein concentration in each retina and by plasma concentration of FITC-albumin.\nTo induce OIR, BN rats at postnatal day 7 (P7) were exposed to hyperoxia (75% O2) for 5 days (P7-P12) and then returned to normoxia. Normal control rats were kept in room air. At P14, the OIR BN rats received an intravitreal injection of 5 μl (0.8 mM in BN rat serum)/eye of thalidomide, Compound 1, Compound 2, or Compound 4 into the right eye and same volume of the BN rat serum into the left eye. Retinal vascular leakage was measured using FITC-labeled albumin as tracer. Normal non-OIR BN rats (n=6) served as baseline at P16.\nTo determine if the effect of Compound 4 on retinal vascular leakage was dose-dependent, the OIR rats at P14 received a single injection of Compound 4 with doses of 0.5, 0.75 and 1.0 μg/eye (5 μl of 0.10, 0.15 and 0.20 mg/ml).\nIn FIG. 7A, OIR rats received an intravitreal injection of 5 μl (0.8 mM in BN rat serum)/eye of thalidomide, Compounds 1, 2, or 4 in the right eye and the same volume of the vehicle in the left eye at P14. Vascular leakage was measured using the FITC-labeled albumin leakage method at P16 and expressed as fd/pr of protein in the retina (mean±SD, n=6). Each of the experimental group was compared with contralateral eye by Student's t test. Retinal vascular leakage in normal non-OIR rats at age of P16 were used as baseline at P16. In FIG. 7B, vascular leakage in the compound-injected eyes was expressed as a percentage of average vascular leakage in the vehicle-injected contralateral eyes. For the control, the average vascular leakage in vehicle-treated retinas was used as 100%. […] In FIGS. 7C and 7D, OIR rats received an intravitreal injection of Compound 4 or thalidomide with doses as indicated at P14. Permeability was measured at P16 and expressed as fd/pr of protein in the retina (mean±SD, n=6). Each of the experimental group was compared with the vehicle control by the paired Student's t test. “Normal” is represented as the permeability in normal rats at P16."}, "STZ-diabetic rats [5]": {"test_system": "STZ-diabetic rats", "conditions": "cited from earlier work"}, "HUVECs": {"test_system": "HUVECs", "assay": "Tube formation assay on matrigel", "type": "cell-based, human", "conditions": "5 μM, 16 h", "description": "Eight-well slide chambers were coated with matrigel and at 37° C. and 5% CO2 for 30 min. HUVECs were then seeded at 30,000 cells/well in EGM-II containing either vehicle (0.5% DMSO), 5 μM of Compound 4 or thalidomide and incubated at 37° C. and 5% CO2 for 16 h. After incubation, slides were washed in PBS, fixed in 100% methanol for 10 s, and stained with DiffQuick solution II for 2 min. To analyze tube formation, each well was digitally photographed using a ×2.5 objective.\nRepresentative images were captured after incubation of vehicle, thalidomide and Compound 4 for 16 h."}}, "note": "pIC50: −log10 of the molar value.", "data": [{"molecule": "CC(C)c1cccc(C(C)C)c1N1C(=O)c2ccc(N)cc2C1=O", "note": "[Compound 4]", "values": [{"measurement": "pIC50", "setting": "HUVEC [1]", "value": 5.70}, {"measurement": "ED50, dose reducing blood vessel number to 50% of VEGF/bFGF alone group", "setting": "[2]", "value": 6.5, "unit": "μg/embryo"}, {"measurement": "pIC50", "setting": "HUVEC [3]", "value": "> 6.00"}, {"measurement": "reduction of retinal vascular leakage vs vehicle control", "setting": "STZ-diabetic rats [4]", "value": "~100", "unit": "%"}, {"measurement": "pIC50", "setting": "BRCEC", "value": 5.74}, {"measurement": "retinal vascular leakage as % of contralateral vehicle-injected eyes", "setting": "OIR rats", "value": 61, "unit": "%"}, {"measurement": "reduction of retinal vascular leakage vs vehicle control", "setting": "OIR rats", "value": 40, "unit": "%"}]}, {"molecule": "O=C1CCC(N2C(=O)c3ccccc3C2=O)C(=O)N1", "note": "(stereo not drawn) [thalidomide]", "values": [{"measurement": "VEGF in ocular fluid", "setting": "STZ-diabetic rats [5]", "value": "blocked the increase of VEGF in ocular fluid"}, {"measurement": "thickening of retinal capillary basement membrane", "setting": "STZ-diabetic rats [5]", "value": "inhibited the thickening of retinal capillary basement membrane"}, {"measurement": "pIC50", "setting": "HUVEC [1]", "value": "< 4.00"}, {"measurement": "inhibition of tube formation", "setting": "HUVECs", "value": "did not show any inhibitory activity"}, {"measurement": "ED50, dose reducing blood vessel number to 50% of VEGF/bFGF alone group", "setting": "[2]", "value": "> 100", "unit": "μg/embryo"}, {"measurement": "pIC50", "setting": "HUVEC [3]", "value": "< 4.00"}, {"measurement": "reduction of retinal vascular permeability", "setting": "STZ-diabetic rats [4]; dose of 0.5 μg/eye", "value": "not at 0.5 μg/eye"}, {"measurement": "reduction of retinal vascular permeability", "setting": "STZ-diabetic rats [4]; doses of 0.75 and 1.0 μg/eye", "value": "showed an inhibitory effect"}, {"measurement": "reduction of retinal vascular leakage vs vehicle control", "setting": "STZ-diabetic rats [4]", "value": 77, "unit": "%"}, {"measurement": "pIC50", "setting": "BRCEC", "value": "< 4.49"}, {"measurement": "reduction of retinal vascular leakage", "setting": "OIR rats; dose of 0.5 μg/eye", "value": "not at the dose of 0.5 μg/eye"}, {"measurement": "reduction of retinal vascular leakage", "setting": "OIR rats; doses of 0.75 and 1.0 μg/eye", "value": "significantly reduced vascular leakage"}, {"measurement": "retinal vascular leakage as % of contralateral vehicle-injected eyes", "setting": "OIR rats", "value": 82, "unit": "%"}, {"measurement": "reduction of retinal vascular leakage vs vehicle control", "setting": "OIR rats", "value": 18, "unit": "%"}]}]}
